Data from ChEMBL document CHEMBL5550194, “Design and synthesis of phosphoryl-substituted steroidal pyridazines (Pho-STPYRs) as potent estrogen receptor alpha inhibitors: targeted treatment of hormone-dependent breast cancer cells” (RSC Med Chem, 2024).
Calls of active or inactive are those of the source. No cut-off for these calls is given here.

Key:
MCF7 [1] = test: Effect on E-cadherin protein expression in human MCF7 cells at 1.7 to 15 uM measured after 48 hrs by immunoblot analysis; assay type: functional, cell-based; settings: dose 1.7-15 µM
MCF7 [2] = test: Anti-estrogenic activity in human MCF7 cells assessed as reduction in GREB1 protein expression at 1.7 to 15 uM measured after 48 hrs by immunoblot analysis; assay type: functional, cell-based; settings: dose 1.7-15 µM
[3] = Selectivity index, ratio of IC50 for human THP-1 cells to IC50 for human MCF7 cells
MCF7 [4] = test: Downregulation of CDK4 protein expression in human MCF7 cells at 1.7 to 15 uM measured after 48 hrs by immunoblot analysis; assay type: functional, cell-based; settings: dose 1.7-15 µM
MCF7 [5] = test: Downregulation of cyclin D1 protein expression in human MCF7 cells at 1.7 to 15 uM measured after 48 hrs by immunoblot analysis; assay type: functional, cell-based; settings: dose 1.7-15 µM
MCF7 [6] = test: Induction of cell death in human MCF7 cells assessed as accumulation of cleaved PARP level at 1.7 to 15 uM measured after 48 hrs by immunoblot analysis; assay type: functional, cell-based; settings: dose 1.7-15 µM
MCF7 [7] = test: Anti-estrogenic activity in human MCF7 cells assessed as reduction in ERalpha protein expression at 1.7 to 15 uM measured after 48 hrs by immunoblot analysis; assay type: functional, cell-based; settings: dose 1.7-15 µM
MCF7 [8] = test: Downregulation of PCNA protein level in human MCF7 cells at 15 uM measured after 48 hrs by immunoblot analysis; assay type: functional, cell-based
MCF7 [9] = test: Synergistic antiproliferative activity against human MCF7 cells assessed as reduction in cell viability at 2.4 uM incubated for 72 hrs in presence of AKT inhibitor IV 6-(2-benzothiazolyl)-1-ethyl-2-[2-(methylphenylamino)ethenyl]-3-phenyl-1H-benzimidazolium mono iodide by MTT assay; assay type: functional, cell-based
[10] = Cytotoxicity against human THP-1 cells assessed as inhibition of cell growth incubated for 72 hrs by MTT assay; assay type: toxicity, cell-based
MCF7 [11] = test: Effect on activated AKT protein level in human MCF7 cells at 1.7 to 15 uM measured after 48 hrs by immunoblot analysis; assay type: functional, cell-based; settings: dose 1.7-15 µM
MDA-MB-231 [12] = test: Antiproliferative activity against human MDA-MB-231 cells assessed as inhibition of cell growth incubated for 72 hrs by MTT assay; assay type: functional, cell-based; settings: MDA-MB-231, 72 h
MCF7 [13] = test: Induction of cell death in human MCF7 cells assessed as reduction in Bcl-2 protein expression measured after 48 hrs by immunoblot analysis; assay type: functional, cell-based; settings: dose 1.7-15 µM
MCF7 [14] = test: Anti-estrogenic activity in human MCF7 cells transfected with luciferase gene under control of estrogen response elements cotransfected with beta-galactosidase assessed as reduction in 17beta-estradiol induced ERalpha protein expression by measuring reduction in luciferase activity measured after 24 hrs; assay type: functional, cell-based; settings: dose 1.7-20 µM
Cytochrome P450 7A1 [15] = target: T1, Cytochrome P450 7A1 (Homo sapiens, UniProt P22680); test: Binding affinity to recombinant human CYP7A1 by spectrophotometric titration method; assay type: ADME; settings: recombinant enzyme
[16] = target: T2, Steroid 17-alpha-hydroxylase/17,20 lyase (Homo sapiens, UniProt P05093); test: Binding affinity to recombinant human CYP17A1 by spectrophotometric titration method; assay type: ADME; settings: recombinant enzyme
T2 sequence (P05093 whole entry): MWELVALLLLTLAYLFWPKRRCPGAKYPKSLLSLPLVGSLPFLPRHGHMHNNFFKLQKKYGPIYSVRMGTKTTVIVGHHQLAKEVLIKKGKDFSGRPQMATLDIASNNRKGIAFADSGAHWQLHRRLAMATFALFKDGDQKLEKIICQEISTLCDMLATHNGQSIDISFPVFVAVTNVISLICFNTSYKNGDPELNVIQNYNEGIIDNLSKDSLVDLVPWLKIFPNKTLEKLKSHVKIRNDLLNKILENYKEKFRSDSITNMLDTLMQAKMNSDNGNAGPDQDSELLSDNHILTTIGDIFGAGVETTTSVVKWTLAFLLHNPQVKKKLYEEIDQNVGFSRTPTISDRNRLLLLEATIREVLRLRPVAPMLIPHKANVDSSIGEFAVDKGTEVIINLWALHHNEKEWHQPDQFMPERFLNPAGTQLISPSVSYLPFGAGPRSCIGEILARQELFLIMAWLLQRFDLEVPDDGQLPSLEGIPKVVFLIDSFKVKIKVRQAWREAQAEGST

Aromatase = target: T3, Aromatase (Homo sapiens, UniProt P11511); test: Binding affinity to recombinant human CYP19A1 by spectrophotometric titration method; assay type: ADME; settings: recombinant enzyme
T3 sequence (P11511 whole entry): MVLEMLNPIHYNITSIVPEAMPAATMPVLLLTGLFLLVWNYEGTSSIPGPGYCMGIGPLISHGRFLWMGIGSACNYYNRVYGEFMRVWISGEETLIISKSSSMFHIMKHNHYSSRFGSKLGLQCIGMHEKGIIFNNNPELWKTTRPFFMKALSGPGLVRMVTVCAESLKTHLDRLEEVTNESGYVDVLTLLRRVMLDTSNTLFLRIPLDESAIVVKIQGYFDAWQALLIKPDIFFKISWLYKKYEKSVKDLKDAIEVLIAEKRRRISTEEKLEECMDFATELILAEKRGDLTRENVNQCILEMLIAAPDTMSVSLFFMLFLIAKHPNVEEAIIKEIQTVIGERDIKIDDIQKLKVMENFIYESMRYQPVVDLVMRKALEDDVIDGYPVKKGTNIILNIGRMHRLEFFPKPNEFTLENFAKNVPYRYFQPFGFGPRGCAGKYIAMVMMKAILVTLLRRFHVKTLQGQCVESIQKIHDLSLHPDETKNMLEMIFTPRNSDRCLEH

MCF7 [17] = test: Antiproliferative activity against human MCF7 cells assessed as inhibition of cell growth incubated for 72 hrs by MTT assay; assay type: functional, cell-based; settings: MCF7, 72 h
Steroid 21-hydroxylase = target: T4, Steroid 21-hydroxylase (Homo sapiens, UniProt P08686); test: Binding affinity to recombinant human CYP21A2 by spectrophotometric titration method; assay type: ADME; settings: recombinant enzyme
T4 sequence (P08686 whole entry): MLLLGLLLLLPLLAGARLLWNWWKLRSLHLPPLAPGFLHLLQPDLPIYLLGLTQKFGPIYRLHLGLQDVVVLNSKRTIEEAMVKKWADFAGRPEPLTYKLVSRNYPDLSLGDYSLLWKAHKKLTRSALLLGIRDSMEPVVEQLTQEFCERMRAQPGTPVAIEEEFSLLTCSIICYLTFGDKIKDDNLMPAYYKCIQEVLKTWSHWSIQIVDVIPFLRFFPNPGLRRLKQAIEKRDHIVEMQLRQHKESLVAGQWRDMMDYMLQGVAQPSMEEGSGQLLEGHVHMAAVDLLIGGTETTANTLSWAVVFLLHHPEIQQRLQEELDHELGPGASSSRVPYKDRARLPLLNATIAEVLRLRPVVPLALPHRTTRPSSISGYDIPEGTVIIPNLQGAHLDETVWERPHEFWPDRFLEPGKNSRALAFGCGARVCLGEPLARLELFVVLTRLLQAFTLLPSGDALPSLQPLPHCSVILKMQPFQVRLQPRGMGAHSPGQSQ

Cytochrome P450 7B1 [18] = target: T5, Cytochrome P450 7B1 (Homo sapiens, UniProt O75881); test: Binding affinity to recombinant human CYP7B1 by spectrophotometric titration method; assay type: ADME; settings: recombinant enzyme
T5 sequence (O75881 whole entry): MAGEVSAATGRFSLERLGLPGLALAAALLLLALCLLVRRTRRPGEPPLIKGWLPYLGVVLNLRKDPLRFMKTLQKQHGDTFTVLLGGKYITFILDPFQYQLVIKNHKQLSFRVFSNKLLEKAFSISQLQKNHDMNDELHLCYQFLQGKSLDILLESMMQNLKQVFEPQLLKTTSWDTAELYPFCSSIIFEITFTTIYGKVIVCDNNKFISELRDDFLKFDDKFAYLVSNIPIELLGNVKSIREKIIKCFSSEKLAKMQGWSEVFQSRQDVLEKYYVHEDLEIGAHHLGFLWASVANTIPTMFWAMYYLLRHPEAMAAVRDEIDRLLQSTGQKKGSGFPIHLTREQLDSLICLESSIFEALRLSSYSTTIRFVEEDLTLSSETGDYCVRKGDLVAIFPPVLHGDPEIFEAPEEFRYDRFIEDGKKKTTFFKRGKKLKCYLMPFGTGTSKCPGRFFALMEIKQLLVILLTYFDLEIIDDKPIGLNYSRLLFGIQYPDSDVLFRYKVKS

Cytochrome P450 7A1 [19] = target: T1, Cytochrome P450 7A1; test: Binding affinity to recombinant human CYP7A1 assessed as substrate-type binding by measuring dissociation constant by spectrophotometric titration method; assay type: ADME
Cytochrome P450 7B1 [20] = target: T5, Cytochrome P450 7B1; test: Binding affinity to recombinant human CYP7B1 assessed as substrate-type binding by measuring dissociation constant by spectrophotometric titration method; assay type: ADME
MDA-MB-231 [21] = test: Antiproliferative activity against estrogen-independent human MDA-MB-231 cells assessed as inhibition of cell growth by MTT assay; assay type: functional, cell-based
MCF7 [22] = test: Antiproliferative activity against estrogen-responsive human MCF7 cells assessed as inhibition of cell growth by MTT assay; assay type: functional, cell-based

T1 sequence (P22680 whole entry): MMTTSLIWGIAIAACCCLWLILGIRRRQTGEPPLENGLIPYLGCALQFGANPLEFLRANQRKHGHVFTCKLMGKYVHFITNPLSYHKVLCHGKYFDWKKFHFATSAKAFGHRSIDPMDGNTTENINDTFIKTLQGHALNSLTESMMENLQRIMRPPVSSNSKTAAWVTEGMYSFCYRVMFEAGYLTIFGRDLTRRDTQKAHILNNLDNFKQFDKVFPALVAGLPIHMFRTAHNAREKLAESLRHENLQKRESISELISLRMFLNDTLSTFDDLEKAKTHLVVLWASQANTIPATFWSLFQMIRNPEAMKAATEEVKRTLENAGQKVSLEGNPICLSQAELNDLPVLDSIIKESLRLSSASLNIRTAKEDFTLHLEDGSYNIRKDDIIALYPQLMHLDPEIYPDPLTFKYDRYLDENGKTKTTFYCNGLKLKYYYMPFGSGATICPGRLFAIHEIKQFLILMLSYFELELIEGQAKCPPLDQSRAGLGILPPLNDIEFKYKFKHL

With C[C@]12CCC(=O)C=C1CC[C@@H]1[C@@H]2CC[C@]2(C)c3c(cnnc3P(=O)(Nc3ccccc3)Nc3ccccc3)C[C@@H]12 the Activity (MCF7 [1]) was “inactive”, the Activity (MCF7 [2]) was “Active” and the “Ratio IC50” value [3] was greater than 8.5. For the same molecule, the Activity (MCF7 [4]) was “Active”, the Activity (MCF7 [5]) was “Active” and the Activity (MCF7 [6]) was “Active”. For the same molecule, the Activity (MCF7 [7]) was “Active”, the Activity (MCF7 [8]) was “Active” and the Activity (MCF7 [9]) was “Active”. For the same molecule, the IC50 at 72 h [10] was greater than 50 µM, the Activity (MCF7 [11]) was “inactive” and the IC50 (MDA-MB-231 [12]) was 22 µM. The Activity (MCF7 [13]) was “Dose-Dependent Effect”, the Activity (MCF7 [14]) was “Dose-Dependent Effect” and the Activity (Cytochrome P450 7A1 [15]) was “Not Active”. For the same molecule, the Activity [16] was “Not Active”, the Activity (Aromatase) was “Not Active” and the IC50 (MCF7 [17]) was 5.9 µM. The Activity (Steroid 21-hydroxylase) was “Not Active” and the Activity (Cytochrome P450 7B1 [18]) was “Not Active”.
For CC(C)(C)NP(=O)(NC(C)(C)C)c1nncc2c1CC1CC[C@H]3[C@@H]4CC[C@H](O)[C@@]4(C)CC[C@@H]3[C@@]1(C)C2 (stereo partly specified), the Kd (Cytochrome P450 7A1 [19]) was 2.1 µM, the Kd (Cytochrome P450 7B1 [20]) was 1.7 µM and the IC50 (MDA-MB-231 [12]) was greater than 25 µM. It also gave an IC50 (MCF7 [17]) of 22.1 µM.
For COc1ccc(NC(=O)c2nncc3c2[C@@]2(C)CC[C@H]4[C@@H](CC=C5C[C@@H](OC(C)=O)CC[C@@]54C)[C@@H]2C3)cc1, the IC50 (MDA-MB-231 [21]) was 12.5 µM.
CC(=O)O[C@H]1CC[C@@]2(C)C(=CC[C@@H]3[C@@H]2CC[C@]2(C)c4c(cnnc4C(=O)Nc4ccc(C(F)(F)F)cc4)C[C@@H]32)C1 gave an IC50 (MCF7 [22]) of 4.9 µM.
